The values below come from patent publication US7803815B2, “Indol-3-yl-corbonyl-piperidin-benzoimidazol derivatives” (Hoffmann-La Roche Inc., priority 2005, dated 2010).

The assay addresses T1, human V1a receptor (Homo sapiens, UniProt P37288).
T1 construct: expressed in transfected cells; host or cells: HEK293 cells, transiently transfected; membrane preparation
The experiment in a line: human V1a receptor binding, 3H-Vasopressin SPA on membranes of transfected HEK293 cells. Particulars: displacement of 4 nM 3H-Vasopressin; HEK293 cell membranes; 1 h at room temperature; Ki from IC50 by the Cheng-Prussoff equation. How it is done: The human V1a receptor was cloned by RT-PCR from total human liver RNA. The coding sequence was subcloned in an expression vector after sequencing to confirm the identity of the amplified sequence. […] Cell membranes were prepared from HEK293 cells transiently transfected with the expression vector and grown in 20 liter fermenters with the following protocol.
50 g of cells are resuspended in 30 ml freshly prepared ice cold Lysis buffer (50 mM HEPES, 1 mM EDTA, 10 mM MgCl2 adjusted to pH=7.4+ complete cocktail of protease inhibitor (Roche Diagnostics)). Homogenized with Polytron for 1 min and sonicated on ice for 2×2 minutes at 80% intensity (Vibracell sonicator). The preparation is centrifuged 20 min at 500 g at 4° C., the pellet is discarded, and the supernatant centrifuged 1 hour at 43,000 g at 4° C. (19,000 rpm). The pellet is resuspended in 12.5 ml Lysis buffer+12.5 ml Sucrose 20% and homogenized using a Polytron for 1-2 min. The protein concentration is determined by the Bradford method, and aliquots are stored at −80° C. until use. For binding studies 60 mg Yttrium silicate SPA beads (Amersham) are mixed with an aliquot of membrane in binding buffer (50 mM Tris, 120 mM NaCl, 5 mM, KCl, 2 mM CaCl2, 10 mM MgCl2) for 15 minutes with mixing. 50 ul of bead/membrane mixture is then added to each well of a 96 well plate, followed by 50 ul of 4 nM 3H-Vasopressin (American Radiolabeled Chemicals). For total binding measurement, 100 ul of binding buffer are added to the respective wells, for non-specific binding 100 ul of […] cold vasopressin and for compound testing 100 ul of a serial dilution of each compound in 2% DMSO. The plate is incubated 1 h at room temperature, centrifuged 1 min at 1000 g and counted on a Packard Top-Count. Non-specific binding counts are subtracted from each well, and data is normalized to the maximum specific binding set at 100%. To calculate an IC 50, the curve is fitted using a non-linear regression model (XLfit), and the Ki is calculated using the Cheng-Prussoff equation.

T1 sequence (P37288 whole entry): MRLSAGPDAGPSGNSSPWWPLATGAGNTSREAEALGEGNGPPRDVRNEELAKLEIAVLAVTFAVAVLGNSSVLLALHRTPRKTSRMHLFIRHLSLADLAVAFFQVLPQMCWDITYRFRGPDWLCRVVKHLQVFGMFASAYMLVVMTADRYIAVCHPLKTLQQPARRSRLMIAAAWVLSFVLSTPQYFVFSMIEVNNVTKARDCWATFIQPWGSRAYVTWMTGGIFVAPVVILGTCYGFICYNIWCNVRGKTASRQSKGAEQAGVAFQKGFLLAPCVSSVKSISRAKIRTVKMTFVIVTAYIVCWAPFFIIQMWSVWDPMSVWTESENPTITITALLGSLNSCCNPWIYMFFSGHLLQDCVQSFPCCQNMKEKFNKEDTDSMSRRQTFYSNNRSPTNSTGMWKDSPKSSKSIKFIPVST

Molecule `Cc1oc(-c2ccccc2)nc1C(=O)Cn1cc(C(=O)N2CCC(n3c(=O)[nH]c4ccccc43)CC2)c2ccc(Cl)cc21` [Example 45, 1-(1-{6-Chloro-1-[2-(5-methyl-2-phenyl-oxazol-4-yl)-2-oxo-ethyl]-1H-indole-3-carbonyl}-piperidin-4-yl)-1,3-dihydro-benzoimidazol-2-one] returned a Ki of 43 nM.
Turning to `N#CCn1cc(C(=O)N2CCC(n3c(=O)[nH]c4ccccc43)CC2)c2ccc(Cl)cc21` [Example 21, {6-Chloro-3-[4-(2-oxo-2,3-dihydro-benzoimidazol-1-yl)-piperidine-1-carbonyl]-indol-1-yl}-acetonitrile], the Ki worked out at 6 nM. This Ki lies about 7.2-fold lower than the previous one.
The molecule `O=C(c1cn(Cc2ccccc2)c2cc(Cl)ccc12)N1CCC(n2c(=O)[nH]c3ccccc32)CC1` [Example 24, 1-[1-(1-Benzyl-6-chloro-1H-indole-3-carbonyl)-piperidin-4-yl]-1,3-dihydro-benzoimidazol-2-one] showed a Ki of 2 nM.
As to `Cc1c(C(=O)N2CCC(n3c(N4CCCCC4)nc4ccccc43)CC2)c2ccccc2n1Cc1ccccc1` [Example 4, (1-Benzyl-2-methyl-1H-indol-3-yl)-[4-(2-piperidin-1-yl-benzoimidazol-1-yl)-piperidin-1-yl]-methanone], the Ki came to 6 nM.
To `O=C(c1cn(C(=O)c2cccc(F)c2F)c2cc(Cl)ccc12)N1CCC(n2c(=O)[nH]c3ccccc32)CC1` [Example 31, 1-{1-[6-Chloro-1-(2,3-difluoro-benzoyl)-1H-indole-3-carbonyl]-piperidin-4-yl}-1,3-dihydro-benzoimidazol-2-one] belongs 25 nM; to `CC(C)n1cc(C(=O)N2CCC(n3c(=O)[nH]c4ccccc43)CC2)c2ccc(F)cc21` [Example 12, 1-[1-(6-Fluoro-1-isopropyl-1H-indole-3-carbonyl)-piperidin-4-yl]-1,3-dihydro-benzoimidazol-2-one], 13 nM; to `CN(C)CCn1c(=O)n(C2CCN(C(=O)c3c[nH]c4cc(Cl)ccc34)CC2)c2ccccc21` [Example 27, 1-[1-(6-Chloro-1H-indole-3-carbonyl)-piperidin-4-yl]-3-(2-dimethylamino-ethyl)-1,3-dihydro-benzoimidazol-2-one], 5 nM.
To `O=C(c1cn(C(=O)c2cccc(F)c2)c2cc(Cl)ccc12)N1CCC(n2c(=O)[nH]c3ccccc32)CC1` [Example 28, 1-{1-[6-Chloro-1-(3-fluoro-benzoyl)-1H-indole-3-carbonyl]-piperidin-4-yl}-1,3-dihydro-benzoimidazol-2-one] belongs 12 nM; to `Cc1c(C(=O)N2CCC(n3c(=O)n(CCN(C)C)c4ccccc43)CC2)c2ccccc2n1Cc1ccccc1` [Example 20, 1-[1-(1-Benzyl-2-methyl-1H-indole-3-carbonyl)-piperidin-4-yl]-3-(2-dimethylamino-ethyl)-1,3-dihydro-benzoimidazol-2-one], 5 nM.
In the case of `Cc1cc2c(C(=O)N3CCC(n4c(=O)[nH]c5ccccc54)CC3)cn(CC(=O)N(C)C)c2cc1Cl` [Example 47, 2-{6-Chloro-5-methyl-3-[4-(2-oxo-2,3-dihydro-benzoimidazol-1-yl)-piperidine-1-carbonyl]-indol-1-yl}-N,N-dimethyl-acetamide] it was 5 nM; in that of `O=C(c1cn(C(=O)c2ccccc2F)c2cc(Cl)ccc12)N1CCC(n2c(=O)[nH]c3ccccc32)CC1` [Example 30, 1-{1-[6-Chloro-1-(2-fluoro-benzoyl)-1H-indole-3-carbonyl]-piperidin-4-yl}-1,3-dihydro-benzoimidazol-2-one], 35 nM; in that of `O=C(Cn1cc(C(=O)N2CCC(n3c(=O)[nH]c4ccccc43)CC2)c2ccc(Cl)cc21)c1ccc(F)c(F)c1` [Example 39, 1-(1-{6-Chloro-1-[2-(3,4-difluoro-phenyl)-2-oxo-ethyl]-1H-indole-3-carbonyl}-piperidin-4-yl)-1,3-dihydro-benzoimidazol-2-one], 18 nM.
Molecule `O=C(c1cn(C(=O)c2cc(F)cc(F)c2)c2cc(Cl)ccc12)N1CCC(n2c(=O)[nH]c3ccccc32)CC1` [Example 37, 1-{1-[6-Chloro-1-(3,5-difluoro-benzoyl)-1H-indole-3-carbonyl]-piperidin-4-yl}-1,3-dihydro-benzoimidazol-2-one] gave a Ki of 15 nM.
The molecule `O=C(c1cn(CC2CCCCC2)c2ccccc12)N1CCC(n2c(=O)[nH]c3ccccc32)CC1` [Example 25, 1-[1-(1-Cyclohexylmethyl-1H-indole-3-carbonyl)-piperidin-4-yl]-1,3-dihydro-benzoimidazol-2-one] displayed a Ki of 20 nM.
For `O=C(Cn1cc(C(=O)N2CCC(n3c(=O)[nH]c4ccccc43)CC2)c2ccc(Cl)cc21)c1ccc(F)cc1F` [Example 36, 1-(1-{6-Chloro-1-[2-(2,4-difluoro-phenyl)-2-oxo-ethyl]-1H-indole-3-carbonyl}-piperidin-4-yl)-1,3-dihydro-benzoimidazol-2-one], the affinity, expressed as Ki, was 6 nM.
The molecule `O=C(Cn1cc(C(=O)N2CCC(n3c(=O)[nH]c4ccccc43)CC2)c2ccc(Cl)cc21)c1cc(F)cc(F)c1` [Example 44, 1-(1-{6-Chloro-1-[2-(3,5-difluoro-phenyl)-2-oxo-ethyl]-1H-indole-3-carbonyl}-piperidin-4-yl)-1,3-dihydro-benzoimidazol-2-one] came in with a Ki of 17 nM.
Regarding `CCC(C)C(=O)c1[nH]c2ccccc2c1C(=O)N1CCC(n2c(=O)[nH]c3ccccc32)CC1` (stereo not drawn) [Example 22, 1-{1-[2-(2-Methyl-butyryl)-1H-indole-3-carbonyl]-piperidin-4-yl}-1,3-dihydro-benzoimidazol-2-one], affinity was put at a Ki of 11 nM.
`O=C(c1cn(-c2cc(F)cc(F)c2)c2cc(Cl)ccc12)N1CCC(n2c(=O)[nH]c3ccccc32)CC1` [Example 40, 1-{1-[6-Chloro-1-(3,5-difluoro-phenyl)-1H-indole-3-carbonyl]-piperidin-4-yl}-1,3-dihydro-benzoimidazol-2-one] came in with a Ki of 13 nM.
Regarding `O=C(c1cn(Cc2ccccc2)c2ccccc12)N1CCC(n2c(=O)[nH]c3ccccc32)CC1` [Example 8, 1-[1-(1-Benzyl-1H-indole-3-carbonyl)-piperidin-4-yl]-1,3-dihydro-benzoimidazol-2-one], the Ki is 13 nM.
To `CN(C)C(=O)Cn1cc(C(=O)N2CCC(n3c(=O)[nH]c4ccccc43)CC2)c2cc(Cl)c(Cl)cc21` [Example 48, 2-{5,6-Dichloro-3-[4-(2-oxo-2,3-dihydro-benzoimidazol-1-yl)-piperidine-1-carbonyl]-indol-1-yl}-N,N-dimethyl-acetamide] belongs 3 nM; to `Cc1c(C(=O)N2CCC(n3c(Cl)nc4ccccc43)CC2)c2ccccc2n1Cc1ccccc1` [Example 1, (1-Benzyl-2-methyl-1H-indol-3-yl)-[4-(2-chloro-benzoimidazol-1-yl)-piperidin-1-yl]-methanone], 45 nM; to `Cc1c(C(=O)N2CCC(n3c(=O)n(C)c4ccccc43)CC2)c2ccccc2n1Cc1ccccc1` [Example 9, 1-{1-[(1-benzyl-2-methyl-1H-indol-3-yl)carbonyl]piperidin-4-yl}-3-methyl-1,3-dihydro-2H-benzimidazol-2-one], 13 nM.
`O=C(c1cn(C(=O)N2CCCCC2)c2cc(Cl)ccc12)N1CCC(n2c(=O)[nH]c3ccccc32)CC1` [Example 41, 1-{1-[6-Chloro-1-(piperidine-1-carbonyl)-1H-indole-3-carbonyl]-piperidin-4-yl}-1,3-dihydro-benzoimidazol-2-one] registered a Ki of 14 nM. This Ki and that of the molecule before are within 1.5-fold of each other.
In the case of `CC(C)n1cc(C(=O)N2CCC(n3c(=O)[nH]c4ccccc43)CC2)c2ccccc21` [Example 14, 1-[1-(1-Isopropyl-1H-indole-3-carbonyl)-piperidin-4-yl]-1,3-dihydro-benzoimidazol-2-one] it was 32 nM; in that of `O=C(c1c[nH]c2cc(Cl)ccc12)N1CCC(n2c(=O)[nH]c3ccccc32)CC1` [Example 18, 1-[1-(6-Chloro-1H-indole-3-carbonyl)-piperidin-4-yl]-1,3-dihydro-benzoimidazol-2-one], 7 nM; in that of `COc1ccc2c(C(=O)N3CCC(n4c(=O)[nH]c5ccccc54)CC3)cn(C(C)C)c2c1` [Example 11, 1-[1-(1-Isopropyl-6-methoxy-1H-indole-3-carbonyl)-piperidin-4-yl]-1,3-dihydro-benzoimidazol-2-one], 20 nM.
The molecule `O=C(c1c[nH]c2cc(Cl)c(F)cc12)N1CCC(n2c(=O)[nH]c3ccccc32)CC1` [Example 19, 1-[1-(6-Chloro-5-fluoro-1H-indole-3-carbonyl)-piperidin-4-yl]-1,3-dihydro-benzoimidazol-2-one] came in with a Ki of 5 nM.

As a reminder, the Ki is the dissociation constant of the complex between target and ligand, obtained from inhibition or displacement.
